In patent US11186566B2, “Modulator of cystic fibrosis transmembrane conductance regulator, pharmaceutical compositions, methods of treatment, and process for making the modulator” (Vertex Pharmaceuticals Incorporated, priority 2016, dated 2021):
Entries after “also recorded” stand apart in the source; their conditions may differ. Where two headings read alike, the source gives them in different places.

Legend:
[1] = biological target: human PXR (Homo sapiens (Human), UniProt O75469); assay: PXR assay (PXR mediated CYP3A4 induction, DPX-2 cell line); format: cell-based; conditions: DPX-2 cells, 48 hours, 0.1 to 60 μM
Protocol: 5D. Experimental Protocol for PXR Assay
The propensity for PXR mediated CYP3A4 induction is assessed using the DPX-2 cell line in vitro. This cell line, which has been licensed from Puracyp Inc. was derived from HepG2 cells and has been stably transfected with genes encoding human PXR as well as a modified luciferase reporter linked to the CYP3A4 promoter region and related distal and proximal enhancers.
The assay is run in 384 well format and each test article is administered in 11 doses ranging from 0.1 to 60 μM. On day 1, DPX-2 cells which have previously been expanded in-house and cryopreserved are thawed and seeded in tissue culture plates. The following day, media is changed and cells are cultured in media containing test article, vehicle control or the positive control compound, the clinically validated CYP3A4 inducer rifampicin. Cells are cultured in the presence of test article for 48 hours and then cell viability is assessed using fluorescence based assay (Cell Titer-Fluor, Promega) with an EnVision Plate Reader (PerkinElmer). Subsequently, CYP3A4 transactivation, which is proportional to luciferase activity, is measured by reading luminescense using the Promega One-Glo reagent system using the same plate reader.
Data processing within the Genedata software package allows reporting of max fold induction compared to vehicle control, an EC50 value for CYP3A4 inducers and an 11 point-dose response curve.

[2] = Metabolism of Compound 1 in vitro and in vivo
Protocol: Compound 1 and the metabolites shown in the following table were prepared and tested.

[3] = biological target: T1, F508del-CFTR (Homo sapiens (Human), UniProt P13569, DEL508-508); assay: Ussing chamber chloride transport experiments in HBE cells; format: cell-based
Protocol: Ussing chamber experiments were performed on polarized airway epithelial cells expressing F508del to further characterize the F508del modulators identified in the optical assays. Non-CF and CF airway epithelia were isolated from bronchial tissue, cultured as previously described (Galietta, L. J. V., Lantero, S., Gazzolo, A., Sacco, O., Romano, L., Rossi, G. A., & Zegarra-Moran, O. (1998) In Vitro Cell. Dev. Biol. 34, 478-481), and plated onto Costar® Snapwell™ filters that were precoated with NIH3T3-conditioned media. After four days the apical media was removed and the cells were grown at an air liquid interface for >14 days prior to use. […] CF-HBE were isolated from patients homozygous for […] or compound heterozygous for F508del with an different disease causing mutation on the other allele.
HBE grown on Costar® Snapwell™ cell culture inserts were mounted in an Ussing chamber (Physiologic Instruments, Inc., San Diego, Calif.), and the transepithelial resistance and short-circuit current in the presence of a basolateral to apical Cl^− gradient (ISC) were measured using a voltage-clamp system (Department of Bioengineering, University of Iowa, Iowa). Briefly, HBE were examined under voltage-clamp recording conditions (Vhold=0 mV) at 37° C. The basolateral solution contained (in mM) 145 NaCl, 0.83 K2HPO4, 3.3 KH2PO4, 1.2 MgCl2, 1.2 CaCl2, 10 Glucose, 10 HEPES (pH adjusted to 7.35 with NaOH) and the apical solution contained (in mM) 145 NaGluconate, 1.2 MgCl2, 1.2 CaCl2, 10 glucose, 10 HEPES (pH adjusted to 7.35 with NaOH).
Typical protocol utilized a basolateral to apical membrane Cl^− concentration gradient. To set up this gradient, normal ringers was used on the basolateral membrane, whereas apical NaCl was replaced by equimolar sodium gluconate (titrated to pH 7.4 with NaOH) to give a large Cl^− concentration gradient across the epithelium. Modulators were added either to the basolateral side […] to assay or to the apical side during the assay. Forskolin (10 μM) was added to the apical side during the assay to stimulate CFTR-mediated Cl^− transport. […]

[4] = Rat IV and PO PK studies; format: in vivo, male Sprague-Dawley rats; conditions: male, Sprague-Dawley, plasma
Protocol: 5C. Experimental Protocol for Rat IV and PO PK Studies
[…] […] Analyses of plasma and dose preparations were performed using LC/MS/MS.
Plasma concentration-time profiles of the tested compound in Sprague-Dawley rats at scheduled (nominal) sampling times were analyzed by noncompartmental pharmacokinetic methods using PK function within Watson LIMS software, Version 7.4.2 (Thermo Scientific Inc, Waltham, Mass.). AUC values were calculated using the linear trapezoidal rule.

[5] = biological target: T1, F508del-CFTR; assay: F508del-CFTR processing and trafficking in vitro (170 to 180 kDa band); format: cell-based; conditions: for increase in steady-state levels, fold of untreated levels: F508del/F508del-HBE cells, 16 to 24 hours
Source text: The CFTR protein delivered to the cell surface by Compound 1 alone or in combination with Compound II (Compound I/Compound II) was potentiated by Compound III.

[6] = biological target: T1, F508del-CFTR; assay: Membrane potential optical (fluorescent voltage sensing dye, FLIPR III) HTS assay for F508del-CFTR modulators; format: cell-based
In short: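 NIH3T3 mouse fibroblasts stably expressing F508del-CFTR were seeded on matrigel-coated plates for 18–24 h at 37 °C. For correction assays they were cultured with or without compound for that period. Membrane potential was read on FLIPR III with voltage-sensing dyes, using a pH 7.4 NaCl/HEPES bath and a chloride-free gluconate substitute solution.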

[7] = Ussing Chamber, F508del/F508del-HBE cells

T1 sequence (P13569 other isoform, or with tags, fused parts or gaps del F508-F508): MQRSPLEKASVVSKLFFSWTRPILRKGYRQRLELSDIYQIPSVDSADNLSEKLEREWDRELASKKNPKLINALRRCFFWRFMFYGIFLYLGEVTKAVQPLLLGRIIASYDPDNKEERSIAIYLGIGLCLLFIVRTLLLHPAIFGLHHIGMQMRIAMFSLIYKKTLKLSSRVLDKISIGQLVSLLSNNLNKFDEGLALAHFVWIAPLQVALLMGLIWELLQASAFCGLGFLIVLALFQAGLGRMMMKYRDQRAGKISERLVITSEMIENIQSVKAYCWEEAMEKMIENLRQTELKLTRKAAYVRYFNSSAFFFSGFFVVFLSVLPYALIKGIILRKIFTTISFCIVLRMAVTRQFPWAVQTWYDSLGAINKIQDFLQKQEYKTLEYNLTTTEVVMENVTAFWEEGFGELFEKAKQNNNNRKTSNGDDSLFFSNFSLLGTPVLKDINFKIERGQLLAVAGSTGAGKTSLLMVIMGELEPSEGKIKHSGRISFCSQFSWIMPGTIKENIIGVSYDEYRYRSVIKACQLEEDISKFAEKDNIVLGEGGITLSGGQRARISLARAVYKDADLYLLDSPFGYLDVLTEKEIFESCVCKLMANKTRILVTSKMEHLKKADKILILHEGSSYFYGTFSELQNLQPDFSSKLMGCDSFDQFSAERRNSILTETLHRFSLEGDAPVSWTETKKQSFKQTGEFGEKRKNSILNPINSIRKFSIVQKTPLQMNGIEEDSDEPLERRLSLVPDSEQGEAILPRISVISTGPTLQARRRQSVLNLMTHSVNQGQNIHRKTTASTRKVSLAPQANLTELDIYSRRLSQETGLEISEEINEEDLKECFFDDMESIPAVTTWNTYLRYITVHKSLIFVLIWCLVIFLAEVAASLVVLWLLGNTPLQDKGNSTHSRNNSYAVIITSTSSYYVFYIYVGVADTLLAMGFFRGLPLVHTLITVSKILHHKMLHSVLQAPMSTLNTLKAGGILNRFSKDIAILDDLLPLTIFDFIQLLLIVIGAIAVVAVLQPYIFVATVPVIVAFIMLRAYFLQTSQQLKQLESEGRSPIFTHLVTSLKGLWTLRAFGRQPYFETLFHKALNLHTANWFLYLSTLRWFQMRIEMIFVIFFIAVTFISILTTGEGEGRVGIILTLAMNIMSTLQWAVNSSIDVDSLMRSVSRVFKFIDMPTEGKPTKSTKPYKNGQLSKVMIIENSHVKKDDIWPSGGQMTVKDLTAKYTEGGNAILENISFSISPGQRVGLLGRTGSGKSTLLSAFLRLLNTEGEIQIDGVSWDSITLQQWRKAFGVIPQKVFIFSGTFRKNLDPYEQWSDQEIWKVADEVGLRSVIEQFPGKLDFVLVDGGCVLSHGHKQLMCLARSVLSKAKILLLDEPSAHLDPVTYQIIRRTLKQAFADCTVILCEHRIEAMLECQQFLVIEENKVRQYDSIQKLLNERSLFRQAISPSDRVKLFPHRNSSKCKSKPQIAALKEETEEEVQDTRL
Chain of human PXR (O75469 whole entry): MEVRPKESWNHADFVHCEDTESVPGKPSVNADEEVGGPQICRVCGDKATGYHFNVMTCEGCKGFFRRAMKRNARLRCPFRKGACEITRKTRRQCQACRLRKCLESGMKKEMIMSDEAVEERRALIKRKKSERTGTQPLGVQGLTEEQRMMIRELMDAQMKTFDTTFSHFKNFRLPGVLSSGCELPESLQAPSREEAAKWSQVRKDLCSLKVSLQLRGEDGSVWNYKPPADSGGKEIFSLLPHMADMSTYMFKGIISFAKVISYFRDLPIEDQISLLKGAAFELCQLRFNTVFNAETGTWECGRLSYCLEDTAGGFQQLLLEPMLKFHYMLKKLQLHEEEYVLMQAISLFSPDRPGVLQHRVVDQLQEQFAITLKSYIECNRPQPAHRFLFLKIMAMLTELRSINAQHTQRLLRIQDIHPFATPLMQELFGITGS

| PXR Max Induction (% of rifampicin) [1] | chloride transport [3, 7] | effect on chloride transport in relation to the effect of Compound II [3, 7] | bioavailability ([4]; 3 mg/kg, oral, read-out: Rat po % F) | clearance ([4]; intravenous, 3.0 mg/kg, read-out: Rat iv CL) | AUC ([4]; oral, 3 mg/kg) | increase in steady-state levels, fold of untreated levels [5] | increase in steady-state levels, fold of untreated levels ([5]; Compound 1 in combination with 3 μM Compound II) | EC50 ([6]; F508del NIH 3T3 cells, assay 5A-A1, read-out: CFTRdF508 EC50) | EC50 ([6]; F508del NIH 3T3 cells, assay 5A-A1, read-out: EC50) | Emax ([6]; NIH3T3, F508del NIH 3T3 cells, relative to Compound II, read-out: % Efficacy relative to Compound II) | EC50 ([6]; Table 7, Compound 1 and metabolites, read-out: CFTRdF508 EC50) | EC50 ([6]; Table 9, read-out: CFTR dF508 EC50) | potentiation of F508del-CFTR delivered to the cell surface by Compound I alone or in combination with Compound II ([3]; HBE cells) | Structure (SMILES) | metabolism [2] | processing and trafficking of F508del-CFTR ([5]; in vitro) |
| --- | --- | --- | --- | --- | --- | --- | --- | --- | --- | --- | --- | --- | --- | --- | --- | --- |
| 3 % of rifampicin | enhanced chloride transport | additive to the effect of Compound II | 63% | 1.6 mL/min/kg | 21000 ng·h/mL | 6.5 fold | 18.7 fold | < 100 nM | < 3000 nM | ≥ 100% | 30 nM | 30 nM | – | C[C@@H]1CN(c2nc(-n3ccc(OCCC4(C(F)(F)F)CC4)n3)ccc2C(=O)NS(=O)(=O)c2ccccc2)C(C)(C)C1 [Compound 1, N-(benzenesulfonyl)-6-[3-[2-[1-(trifluoromethyl)cyclopropyl]ethoxy]pyrazol-1-yl]-2-[(4S)-2,2,4-trimethylpyrrolidin-1-yl]pyridine-3-carboxamide] | metabolized both in vitro and in vivo, mostly by oxidative metabolism | improved the processing and trafficking of F508del-CFTR; also recorded: facilitates the processing and trafficking of F508del-CFTR |
| – | – | – | – | – | – | – | – | – | – | – | – | – | potentiated | CC(C)(C)c1cc(C(C)(C)C)c(NC(=O)c2c[nH]c3ccccc3c2=O)cc1O [Compound III, N-(5-hydroxy-2,4-di-tert-butyl-phenyl)-4-oxo-1H-quinoline-3-carboxamide, reference compound] | – | – |
